Laboratory results published in publication PMC11022729 (Advanced Science, 2024).

Legend:
[1] = system: mice; assay: Histamine-induced itch behavior; format: in vivo, mouse; details: i.p.
From the text: Chloroquine‐induced scratching in mice is driven by MrgprA3 activation in the NP2 population of sensory neurons.^[ [10], [29] ^] To further explore the antipruritic efficacy of compound 6 in histamine‐independent itch, we assessed the behavioral response after s.c. injection of the peptide Ser‐Leu‐Ile‐Gly‐Arg‐Leu (SLIGRL) that evokes scratching by activation of MrgprC11,^[ [30] ^] which is expressed in the NP2 and NP3 population.^[ [10] ^] […] Moreover, compound 6 ameliorated histamine‐independent itch evoked by s.c. injection of β‐alanine that activates MrgprD^[ [31] ^] in the NP1 population of sensory neurons^[ [10] ^] (Figure 3F). In contrast, scratching induced by subcutaneous histamine was not affected by compound 6 (Figure 3G). The lack of an effect on histamine‐evoked scratching was supported by the low affinity of compound 6 for histamine H1 receptors, which was determined using a [^3H]‐pyrilamine competition binding assay in vitro (Table S3, Supporting Information). […] We also investigated the efficacy of compound 6 after peroral (p.o.) delivery.
Three to four days before the day of the experiment, the fur on the dorsolateral aspect of the neck was shaved under brief isoflurane anesthesia. […] Number of scratching bouts directed toward the nape of the neck was assessed over 30 min by videotaping. […]

[2] = molecular target: histamine H1 receptor (Homo sapiens, UniProt P35367); assay: [3H]-pyrilamine competition binding assay; design: expressed in transfected cells; host or cells: CHO
Procedure: For membrane preparations of CHO cells stably expressing the human histamine H1 receptor (H1R), cells were washed and harvested with PBS buffer, homogenized by sonication (3 × 15 s) in ice‐cold HEPES‐H1R binding buffer (20 mM HEPES, 10 mM MgCl2, and 100 mM NaCl), followed by a centrifugation step (20 000 × g, 30 min, 4 °C). The resulting cell pellet was resuspended in binding buffer and homogenized using a hand potter. Membrane extracts were stored at −80 °C. Prior to use, the membranes were handled as described for D2R/D3R. […] Assays were performed at least in duplicates with appropriate concentrations between 0.1 nM and 100 µM of the test compound. […] The subsequent procedure was performed as described for D2R/D3R.

Chain of histamine H1 receptor (P35367 whole entry): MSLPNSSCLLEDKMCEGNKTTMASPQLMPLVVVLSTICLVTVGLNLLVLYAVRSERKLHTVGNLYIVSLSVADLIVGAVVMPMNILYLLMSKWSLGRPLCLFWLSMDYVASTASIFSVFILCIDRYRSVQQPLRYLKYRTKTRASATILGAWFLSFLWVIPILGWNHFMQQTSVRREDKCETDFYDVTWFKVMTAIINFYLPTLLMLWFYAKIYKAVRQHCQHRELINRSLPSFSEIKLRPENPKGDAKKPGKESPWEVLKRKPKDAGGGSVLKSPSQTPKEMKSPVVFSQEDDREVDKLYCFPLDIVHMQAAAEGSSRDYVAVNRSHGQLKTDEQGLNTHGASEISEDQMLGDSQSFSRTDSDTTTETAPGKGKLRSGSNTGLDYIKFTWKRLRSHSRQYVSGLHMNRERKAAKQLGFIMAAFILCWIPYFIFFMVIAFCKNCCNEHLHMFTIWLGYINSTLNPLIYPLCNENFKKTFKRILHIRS

O=C(O)COCCN1CCN(C2=Nc3ccccc3Oc3ccc(Cl)cc32)CC1 [Compound 6]
scratching induced by subcutaneous histamine [1]: not affected | affinity for histamine H1 receptors [2]: low affinity | Ki ([2]; mean [CI 95%]): 575 nM
